In ChEMBL document CHEMBL1136942, “Optimization of 5-phenyl-3-pyridinecarbonitriles as PKCtheta inhibitors” (Bioorg Med Chem Lett, 2009):
pIC50: −log10 of the molar value. Converted amounts (≈) assume the structure as drawn.

Legend:
[1] = target: Protein kinase C theta type (Homo sapiens, UniProt Q04759); experiment: Inhibition of human PKCtheta by IMAP assay
[2] = target: Protein kinase C delta type (Homo sapiens, UniProt Q05655); experiment: Inhibition of human PKCdelta by IMAP assay
[3] = target: Protein kinase C beta type (Homo sapiens, UniProt P05771); experiment: Inhibition of human PKCbeta by IMAP assay
Sequence of Protein kinase C beta type (P05771 whole entry): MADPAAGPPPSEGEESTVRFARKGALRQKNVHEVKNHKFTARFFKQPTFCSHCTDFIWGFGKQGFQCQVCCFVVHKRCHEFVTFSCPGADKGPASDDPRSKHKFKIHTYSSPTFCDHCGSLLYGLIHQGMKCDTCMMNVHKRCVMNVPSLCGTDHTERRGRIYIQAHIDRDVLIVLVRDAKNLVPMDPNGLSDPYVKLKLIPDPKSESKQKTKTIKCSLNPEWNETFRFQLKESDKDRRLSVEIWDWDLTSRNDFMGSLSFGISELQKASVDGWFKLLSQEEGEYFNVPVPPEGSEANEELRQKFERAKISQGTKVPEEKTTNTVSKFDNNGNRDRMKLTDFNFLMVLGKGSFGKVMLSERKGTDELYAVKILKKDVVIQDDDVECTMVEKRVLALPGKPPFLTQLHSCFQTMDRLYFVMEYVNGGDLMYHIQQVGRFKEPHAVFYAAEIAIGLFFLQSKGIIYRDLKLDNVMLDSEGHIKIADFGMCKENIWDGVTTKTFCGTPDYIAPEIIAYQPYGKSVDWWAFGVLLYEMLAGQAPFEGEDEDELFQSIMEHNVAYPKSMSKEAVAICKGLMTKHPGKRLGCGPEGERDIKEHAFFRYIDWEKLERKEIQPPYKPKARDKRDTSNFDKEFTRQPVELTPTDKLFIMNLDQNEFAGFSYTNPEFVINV

[4] = Inhibition of PDGFR
[5] = Metabolic stability in monkey liver microsomes assessed as half life; format: ADME, Macaca mulatta, Microsome; conditions: rhesus monkey
[6] = target: MAP kinase-activated protein kinase 2 (Homo sapiens, UniProt P49137); experiment: Inhibition of MK2
Sequence of MAP kinase-activated protein kinase 2 (P49137 whole entry): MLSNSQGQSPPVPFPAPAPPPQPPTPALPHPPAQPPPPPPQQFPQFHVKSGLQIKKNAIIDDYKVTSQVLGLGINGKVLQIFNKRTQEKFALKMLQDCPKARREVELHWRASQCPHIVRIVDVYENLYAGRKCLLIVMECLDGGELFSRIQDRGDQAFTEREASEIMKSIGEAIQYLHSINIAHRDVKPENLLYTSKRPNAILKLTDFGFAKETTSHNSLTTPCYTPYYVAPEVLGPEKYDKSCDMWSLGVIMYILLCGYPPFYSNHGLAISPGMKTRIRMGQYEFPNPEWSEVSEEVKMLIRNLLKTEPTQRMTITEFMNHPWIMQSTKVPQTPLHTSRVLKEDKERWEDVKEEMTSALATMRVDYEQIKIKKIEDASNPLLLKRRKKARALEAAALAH

[7] = Metabolic stability in mouse liver microsomes assessed as half life; format: ADME, Microsome
[8] = target: Tyrosine-protein kinase Lyn (Homo sapiens, UniProt P07948); experiment: Inhibition of Lyn
Sequence of Tyrosine-protein kinase Lyn (P07948 whole entry): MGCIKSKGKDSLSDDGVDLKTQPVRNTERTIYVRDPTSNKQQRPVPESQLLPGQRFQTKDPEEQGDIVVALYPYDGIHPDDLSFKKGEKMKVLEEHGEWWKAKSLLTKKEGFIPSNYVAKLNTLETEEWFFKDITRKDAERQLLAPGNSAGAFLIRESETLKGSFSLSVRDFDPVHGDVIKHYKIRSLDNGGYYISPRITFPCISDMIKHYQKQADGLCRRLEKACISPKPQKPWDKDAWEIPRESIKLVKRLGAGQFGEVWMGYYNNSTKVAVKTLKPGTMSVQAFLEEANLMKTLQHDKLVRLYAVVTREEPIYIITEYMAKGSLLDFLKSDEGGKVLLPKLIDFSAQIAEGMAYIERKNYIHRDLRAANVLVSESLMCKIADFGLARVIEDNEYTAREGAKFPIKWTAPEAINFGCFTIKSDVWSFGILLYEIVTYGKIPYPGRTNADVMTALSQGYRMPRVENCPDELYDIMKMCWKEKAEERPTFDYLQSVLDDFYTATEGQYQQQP

T-cell [9] = experiment: Blockade of anti-CD3 and anti-CD28 antibody-induced IL2 expression in PKC theta knockout mouse T cells after 20 to 24 hrs by ELISA; format: functional, cell-based
[10] = target: T1, Protein kinase C zeta type (Homo sapiens, UniProt Q05513); experiment: Inhibition of human PKCzeta by IMAP assay
T1 sequence (Q05513 whole entry): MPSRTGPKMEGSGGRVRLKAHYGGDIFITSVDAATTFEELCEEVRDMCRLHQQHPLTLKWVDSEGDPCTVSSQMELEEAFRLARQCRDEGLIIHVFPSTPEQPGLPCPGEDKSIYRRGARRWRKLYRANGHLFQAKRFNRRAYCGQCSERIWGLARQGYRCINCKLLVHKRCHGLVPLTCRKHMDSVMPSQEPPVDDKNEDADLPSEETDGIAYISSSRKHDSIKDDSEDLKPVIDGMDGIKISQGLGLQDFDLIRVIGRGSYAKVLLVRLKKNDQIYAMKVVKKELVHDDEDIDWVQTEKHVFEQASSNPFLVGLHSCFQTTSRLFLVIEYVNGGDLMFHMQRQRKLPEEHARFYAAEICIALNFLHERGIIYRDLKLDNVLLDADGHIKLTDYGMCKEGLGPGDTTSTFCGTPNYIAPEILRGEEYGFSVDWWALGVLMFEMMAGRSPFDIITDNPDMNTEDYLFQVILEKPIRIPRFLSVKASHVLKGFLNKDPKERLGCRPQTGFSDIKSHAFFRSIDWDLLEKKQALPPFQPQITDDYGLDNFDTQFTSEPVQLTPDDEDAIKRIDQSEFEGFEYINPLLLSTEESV

[11] = target: Protein kinase C eta type (Homo sapiens, UniProt P24723); experiment: Inhibition of human PKCeta by IMAP assay
Sequence of Protein kinase C eta type (P24723 whole entry): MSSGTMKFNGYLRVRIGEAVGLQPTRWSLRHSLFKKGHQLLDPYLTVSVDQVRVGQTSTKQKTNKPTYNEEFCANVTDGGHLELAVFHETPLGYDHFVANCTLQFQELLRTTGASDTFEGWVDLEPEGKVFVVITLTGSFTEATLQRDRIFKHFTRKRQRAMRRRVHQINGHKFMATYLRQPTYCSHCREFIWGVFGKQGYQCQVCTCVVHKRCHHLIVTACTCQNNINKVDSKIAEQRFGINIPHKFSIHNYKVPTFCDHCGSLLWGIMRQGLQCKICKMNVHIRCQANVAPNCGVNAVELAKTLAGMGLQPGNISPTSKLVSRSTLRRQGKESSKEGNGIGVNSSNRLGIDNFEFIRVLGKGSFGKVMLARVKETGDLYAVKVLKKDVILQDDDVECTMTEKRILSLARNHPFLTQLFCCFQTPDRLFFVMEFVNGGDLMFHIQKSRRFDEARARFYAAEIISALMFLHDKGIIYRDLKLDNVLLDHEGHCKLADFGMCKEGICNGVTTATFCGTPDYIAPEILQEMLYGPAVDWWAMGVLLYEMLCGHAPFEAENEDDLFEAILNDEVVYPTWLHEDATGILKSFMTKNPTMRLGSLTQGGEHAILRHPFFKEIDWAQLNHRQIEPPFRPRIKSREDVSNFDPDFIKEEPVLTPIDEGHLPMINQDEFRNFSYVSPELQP

[12] = Metabolic stability in dog liver microsomes assessed as half life; format: ADME, Canis lupus familiaris, Microsome
[13] = target: Tyrosine-protein kinase Lck (Homo sapiens, UniProt P06239); experiment: Inhibition of Lck
Sequence of Tyrosine-protein kinase Lck (P06239 whole entry): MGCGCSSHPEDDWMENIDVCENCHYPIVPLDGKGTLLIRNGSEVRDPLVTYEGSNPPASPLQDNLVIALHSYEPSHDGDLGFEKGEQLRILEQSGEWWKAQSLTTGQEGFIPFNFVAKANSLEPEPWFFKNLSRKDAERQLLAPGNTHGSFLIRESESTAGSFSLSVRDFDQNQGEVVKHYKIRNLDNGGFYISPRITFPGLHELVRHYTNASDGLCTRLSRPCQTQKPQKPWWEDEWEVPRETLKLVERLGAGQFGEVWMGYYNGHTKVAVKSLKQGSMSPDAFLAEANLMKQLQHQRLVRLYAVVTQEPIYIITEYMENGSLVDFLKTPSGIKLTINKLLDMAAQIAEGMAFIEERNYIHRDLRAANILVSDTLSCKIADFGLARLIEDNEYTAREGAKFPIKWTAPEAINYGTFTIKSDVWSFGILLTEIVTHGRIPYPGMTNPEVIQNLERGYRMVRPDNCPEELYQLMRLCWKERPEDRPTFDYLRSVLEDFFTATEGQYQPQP

[14] = Metabolic stability in rat liver microsomes assessed as half life; format: ADME, Microsome
T-cell [15] = experiment: Blockade of anti-CD3 and anti-CD28 antibody-induced IL2 expression in wild type C57BL/6 mouse T cells after 20 to 24 hrs by ELISA; format: functional, cell-based; conditions: C57BL/6, T-cell
[16] = Inhibition of IKK
[17] = Solubility at pH 7.4; format: physicochemical; conditions: buffer
[18] = target: Rho-associated protein kinase 1 (Homo sapiens, UniProt Q13464); experiment: Inhibition of ROCK1
[19] = target: T2, Protein kinase C epsilon type (Homo sapiens, UniProt Q02156); experiment: Inhibition of human PKCepsilon by IMAP assay
T2 sequence (Q02156 whole entry): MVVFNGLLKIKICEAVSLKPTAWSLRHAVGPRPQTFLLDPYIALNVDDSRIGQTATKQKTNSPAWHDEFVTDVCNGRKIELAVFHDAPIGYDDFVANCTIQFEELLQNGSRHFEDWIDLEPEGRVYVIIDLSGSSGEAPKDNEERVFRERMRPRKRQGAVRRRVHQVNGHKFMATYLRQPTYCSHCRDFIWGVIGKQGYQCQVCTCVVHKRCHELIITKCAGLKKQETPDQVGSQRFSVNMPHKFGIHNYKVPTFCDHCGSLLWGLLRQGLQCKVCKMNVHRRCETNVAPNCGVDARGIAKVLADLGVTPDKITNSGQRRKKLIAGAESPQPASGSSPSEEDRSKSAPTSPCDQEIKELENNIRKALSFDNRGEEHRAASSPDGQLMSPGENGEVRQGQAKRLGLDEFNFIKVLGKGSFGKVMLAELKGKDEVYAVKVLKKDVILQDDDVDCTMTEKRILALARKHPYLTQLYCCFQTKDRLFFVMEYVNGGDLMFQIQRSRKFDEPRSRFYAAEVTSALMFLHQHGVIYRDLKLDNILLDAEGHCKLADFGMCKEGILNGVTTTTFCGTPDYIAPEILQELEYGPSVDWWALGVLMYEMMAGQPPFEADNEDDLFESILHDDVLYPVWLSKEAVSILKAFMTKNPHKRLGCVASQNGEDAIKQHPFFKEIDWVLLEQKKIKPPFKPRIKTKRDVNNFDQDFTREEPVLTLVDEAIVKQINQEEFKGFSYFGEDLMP

[20] = Metabolic stability in human liver microsomes assessed as half life; format: ADME, Microsome
[21] = Inhibition of p38
[22] = Membrane permeability by PAMPA; format: ADME; conditions: read-out: permeability

Sequence of Protein kinase C delta type (Q05655 whole entry): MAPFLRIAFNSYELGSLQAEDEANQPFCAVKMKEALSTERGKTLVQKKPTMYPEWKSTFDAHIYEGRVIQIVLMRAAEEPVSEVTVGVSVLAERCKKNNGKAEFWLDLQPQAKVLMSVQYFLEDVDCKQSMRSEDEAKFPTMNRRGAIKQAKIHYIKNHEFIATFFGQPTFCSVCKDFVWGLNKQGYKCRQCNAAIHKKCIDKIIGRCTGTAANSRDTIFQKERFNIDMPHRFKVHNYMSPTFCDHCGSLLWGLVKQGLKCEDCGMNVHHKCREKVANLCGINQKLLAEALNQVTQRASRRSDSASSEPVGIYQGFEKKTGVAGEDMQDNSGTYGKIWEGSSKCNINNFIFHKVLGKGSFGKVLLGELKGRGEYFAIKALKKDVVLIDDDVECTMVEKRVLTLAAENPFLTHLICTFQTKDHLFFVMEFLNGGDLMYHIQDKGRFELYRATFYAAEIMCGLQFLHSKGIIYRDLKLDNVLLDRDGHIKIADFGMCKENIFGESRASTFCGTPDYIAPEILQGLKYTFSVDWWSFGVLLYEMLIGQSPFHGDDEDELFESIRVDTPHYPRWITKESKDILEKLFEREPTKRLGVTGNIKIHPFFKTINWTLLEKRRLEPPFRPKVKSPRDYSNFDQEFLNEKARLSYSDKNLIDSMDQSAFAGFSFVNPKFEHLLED
Sequence of Protein kinase C theta type (Q04759 whole entry): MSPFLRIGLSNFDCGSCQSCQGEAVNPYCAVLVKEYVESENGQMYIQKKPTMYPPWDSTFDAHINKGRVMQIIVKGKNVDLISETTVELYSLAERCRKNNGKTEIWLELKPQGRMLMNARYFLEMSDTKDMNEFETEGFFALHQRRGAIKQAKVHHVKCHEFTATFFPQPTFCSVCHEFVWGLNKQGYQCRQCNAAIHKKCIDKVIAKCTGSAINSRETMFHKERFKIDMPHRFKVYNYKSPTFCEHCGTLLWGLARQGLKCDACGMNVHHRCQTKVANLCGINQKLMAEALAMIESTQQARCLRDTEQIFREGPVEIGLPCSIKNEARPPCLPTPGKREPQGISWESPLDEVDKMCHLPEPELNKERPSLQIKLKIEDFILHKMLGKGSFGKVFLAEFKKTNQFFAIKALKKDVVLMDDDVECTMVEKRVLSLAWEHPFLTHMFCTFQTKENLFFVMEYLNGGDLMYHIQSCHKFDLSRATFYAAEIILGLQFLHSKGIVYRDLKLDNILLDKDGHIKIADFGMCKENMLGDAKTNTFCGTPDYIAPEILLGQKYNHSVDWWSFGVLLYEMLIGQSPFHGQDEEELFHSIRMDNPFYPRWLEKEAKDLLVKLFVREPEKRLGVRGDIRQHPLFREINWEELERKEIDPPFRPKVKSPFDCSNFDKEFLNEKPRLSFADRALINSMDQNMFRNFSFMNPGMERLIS

**Q.** What does the source list for `COc1ccc(-c2cncc(C#N)c2Nc2ccc3[nH]ccc3c2F)cc1OC`?
**A.** pIC50 [1]: 8.28; pIC50 [2]: 7.16

**Q.** With `COc1ccc(-c2cncc(C#N)c2Nc2ccc3c(ccn3C)c2C)cc1OC` as the compound, how does the pIC50 [1] read?
**A.** Its pIC50 is 6.59.

**Q.** And the pIC50 [2]?
**A.** The pIC50 was 5.85.

**Q.** With `Cc1c(Nc2c(C#N)cncc2-c2ccccc2)ccc2[nH]ccc12` as the compound, how does the pIC50 [2] read?
**A.** Its pIC50 is 7.20.

**Q.** With `COc1ccc(-c2cncc(C#N)c2Nc2ccc3[nH]ccc3c2C)cc1` as the compound, how does the pIC50 [1] read?
**A.** The pIC50 was 8.25.

**Q.** What about the pIC50 [2] of the same compound?
**A.** The pIC50 was 7.07.

**Q.** With `Cc1c(Nc2c(C#N)cncc2-c2ccc(OCCN3CCOCC3)cc2)ccc2[nH]ccc12` as the compound, how does the pIC50 [2] read?
**A.** Its pIC50 is 6.82.

**Q.** With `Cc1c(Nc2c(C#N)cncc2-c2ccc(OCCN3CCN(C)CC3)cc2)ccc2[nH]ccc12` as the compound, how does the pIC50 [3] read?
**A.** Its pIC50 is 4.66.

**Q.** What about the pIC50 [4] of the same compound?
**A.** The pIC50 was < 5.00.

**Q.** And the half-life [5]?
**A.** The half-life was < 15 min.

**Q.** What about the pIC50 [6] of the same compound?
**A.** The pIC50 was < 5.00.

**Q.** What about the half-life [7] of the same compound?
**A.** The half-life was < 15 min.

**Q.** And the pIC50 [8]?
**A.** Its pIC50 is < 5.00.

**Q.** What about the pIC50 (T-cell [9]) of the same compound?
**A.** Its pIC50 is < 4.82.

**Q.** And the pIC50 [10]?
**A.** The pIC50 was < 4.00.

**Q.** And the pIC50 [11]?
**A.** Its pIC50 is 6.35.

**Q.** What about the half-life [12] of the same compound?
**A.** The half-life was < 15 min.

**Q.** And the pIC50 [13]?
**A.** The pIC50 was < 5.00.

**Q.** And the pIC50 [1]?
**A.** The pIC50 was 8.13.

**Q.** What about the half-life [14] of the same compound?
**A.** Its half-life is < 15 min.

**Q.** And the pIC50 (T-cell [15])?
**A.** Its pIC50 is 6.80.

**Q.** And the pIC50 [16]?
**A.** The pIC50 was < 5.00.

**Q.** And the solubility [17]?
**A.** Its solubility is 67 µg/mL (≈ 144 µM).

**Q.** And the pIC50 [18]?
**A.** Its pIC50 is < 5.00.

**Q.** And the pIC50 [19]?
**A.** Its pIC50 is 7.27.

**Q.** What about the pIC50 [2] of the same compound?
**A.** The pIC50 was 7.29.

**Q.** And the half-life [20]?
**A.** The half-life was < 15 min.

**Q.** And the pIC50 [21]?
**A.** Its pIC50 is < 5.00.

**Q.** And the Papp [22]?
**A.** The Papp was 0.28 ×10⁻⁶ cm/s.

**Q.** With `Cc1cc2[nH]ccc2cc1Nc1c(C#N)cncc1-c1ccc(OCCN2CCN(C)CC2)cc1` as the compound, how does the pIC50 [2] read?
**A.** The pIC50 was 6.89.

**Q.** With `COc1ccc(-c2cncc(C#N)c2Nc2ccc3cc[nH]c3c2)cc1OC` as the compound, how does the pIC50 [1] read?
**A.** Its pIC50 is 5.64.

**Q.** With `Cc1c(Nc2c(C#N)cncc2-c2ccc(OCCCN3CCN(C)CC3)cc2)ccc2[nH]ccc12` as the compound, how does the pIC50 [2] read?
**A.** Its pIC50 is 6.96.

**Q.** What does the source list for `CN1CCN(CCOc2ccc(-c3cncc(C#N)c3Nc3cccc4[nH]ccc34)cc2)CC1`?
**A.** pIC50 [1]: 7.85; pIC50 [2]: 7.39

**Q.** With `Cc1c(Nc2c(C#N)cncc2-c2ccc(OCCN3CCC(N4CCCC4)CC3)cc2)ccc2[nH]ccc12` as the compound, how does the pIC50 [2] read?
**A.** Its pIC50 is 7.52.

**Q.** With `CCc1c(Nc2c(C#N)cncc2-c2ccc(OC)c(OC)c2)ccc2[nH]ccc12` as the compound, how does the pIC50 [1] read?
**A.** The pIC50 was 7.26.

**Q.** What about the pIC50 [2] of the same compound?
**A.** The pIC50 was 6.01.

**Q.** With `COc1ccc(-c2cncc(C#N)c2Nc2cc(C)c3[nH]ccc3c2)cc1OC` as the compound, how does the pIC50 [1] read?
**A.** Its pIC50 is 6.92.

**Q.** With `COc1ccc(-c2cncc(C#N)c2Nc2cc3cc[nH]c3cc2C)cc1OC` as the compound, how does the pIC50 [1] read?
**A.** Its pIC50 is 7.98.

**Q.** And the pIC50 [2]?
**A.** Its pIC50 is 6.55.

**Q.** With `Cc1c(Nc2c(C#N)cncc2-c2ccc(OCCNCCN(C)C)cc2)ccc2[nH]ccc12` as the compound, how does the pIC50 [1] read?
**A.** The pIC50 was 8.23.

**Q.** What about the pIC50 [2] of the same compound?
**A.** Its pIC50 is 7.74.

**Q.** With `COc1ccc(-c2cncc(C#N)c2N(C)c2ccc3[nH]ccc3c2)cc1OC` as the compound, how does the pIC50 [2] read?
**A.** Its pIC50 is 5.68.

**Q.** With `COc1ccc(-c2cncc(C#N)c2Oc2ccc3[nH]ccc3c2)cc1OC` as the compound, how does the pIC50 [1] read?
**A.** The pIC50 was 5.77.

**Q.** With `COc1ccc(-c2cncc(C#N)c2-c2ccc3[nH]ccc3c2)cc1OC` as the compound, how does the pIC50 [1] read?
**A.** Its pIC50 is 5.77.

**Q.** Which results are given for `Cc1c(Nc2c(C#N)cncc2-c2ccc(OCCN3CCCC3)cc2)ccc2[nH]ccc12`?
**A.** pIC50 [1]: 8.35; pIC50 [2]: 7.55

**Q.** With `COc1ccc(-c2cncc(C#N)c2Nc2ccc3[nH]ccc3c2C)cc1OC` as the compound, how does the pIC50 [1] read?
**A.** Its pIC50 is 8.20.

**Q.** What about the pIC50 [2] of the same compound?
**A.** Its pIC50 is 7.09.

**Q.** With `COc1ccc(-c2cncc(C#N)c2Nc2ccc3[nH]ccc3c2OC)cc1OC` as the compound, how does the pIC50 [2] read?
**A.** The pIC50 was 6.46.

**Q.** With `COc1ccccc1-c1cncc(C#N)c1Nc1ccc2[nH]ccc2c1C` as the compound, how does the pIC50 [2] read?
**A.** The pIC50 was 6.47.

**Q.** With `COc1ccc(-c2cncc(C#N)c2Nc2cccc3[nH]ccc23)cc1OC` as the compound, how does the pIC50 [2] read?
**A.** The pIC50 was 7.21.

**Q.** With `COc1cccc(-c2cncc(C#N)c2Nc2ccc3[nH]ccc3c2C)c1` as the compound, how does the pIC50 [2] read?
**A.** The pIC50 was 6.68.

**Q.** With `Cc1c(Nc2c(C#N)cncc2-c2ccc(OCCN3CCN(CCO)CC3)cc2)ccc2[nH]ccc12` as the compound, how does the pIC50 [2] read?
**A.** Its pIC50 is 7.54.

**Q.** With `CN1CCN(CCOc2ccc(-c3cncc(C#N)c3Nc3ccc4[nH]ccc4c3)cc2)CC1` as the compound, how does the pIC50 [2] read?
**A.** Its pIC50 is 6.80.
